Data reported in patent US10441669B2, “Multifunctional chelators, complexes, and compositions thereof, and methods of using same” (ILLINOIS INSTITUTE OF TECHNOLOGY, priority 2013, dated 2019).

Assays:
[1] = In vitro serum stability of 177Lu-radiolabeled bimodal chelator complexes; format: in vitro ADME; conditions: 177Lu complex, human serum, pH 7, 37° C.
[2] = In vitro serum stability of 90Y-radiolabeled bimodal chelator complexes; format: in vitro ADME; conditions: 90Y complex, human serum, pH 7, 37° C.
Experimental: Human serum was purchased from Gemini Bioproducts (#100110). The radiolabeled complexes was prepared and directly used for serum stability studies without further purification. The stability of the pure radiolabeled complexes in human serum was evaluated at 37° C. for 2 weeks. The serum stability of the radiolabeled complexes was assessed by measuring the transfer of the radionuclide from each complex to serum proteins using ITLC (acetonitrile/water (3:2 v/v). A solution of the radiolabeled complex in serum (5-16 μL for ITLC) was withdrawn at the designated time point and evaluated by ITLC. At each of the time points, the percentage of ^90Y released from each of the radiolabeled complexes into serum was assessed by ITLC.

[3] = In vitro serum stability of 90Y-radiolabeled 3p-C complexes; format: in vitro ADME; conditions: human serum, 37° C., in 72 h (3 days)
Experimental: (§1) A significant amount of the radioactivity from both ^90Y-3p-C-DEPA (4) and ^177Lu-3p-C-DEPA (4) was transchelated to serum (25% and 40% in 72 h, respectively). As expected, both ^90Y and ^177Lu complexes of 3p-C-NOTA […] were not stable in serum, and ˜80% of ^90Y and ˜36% of ^177Lu was released from the complexes on day 7. […] However, ^90Y-3p-C-NE3TA underwent rapid dissociation, losing ˜25% of ^90Y to serum in 3 days.
(§2) Human serum was purchased from Gemini Bioproducts (#100110). ^90Y- or ^177Lu-radiolabeled complexes (0.25M NH40OAc, pH 5.5) were prepared from the reaction of chelators with ^90Y or ^177Lu at room temperature or 37° C. Completion of radiolabeling was monitored by ITLC eluted, and the freshly prepared radiolabeled complexes were used for serum stability without further purification. ^90Y-3p-C-DETA, ^90Y-3p-C-NE3TA and ^90Y-3-C-NOTA were prepared by a reaction of 3p-C-DETA (1), 3p-C-NE3TA (2) and 3p-C-NOTA (3) (50 μg) with ^90Y (150 μCi) in 0.25 M NH4OAc buffer (pH 7.0). […] The stability of the radiolabeled complexes in human serum was evaluated at 37° C. over 14 days. The serum stability of the radiolabeled complexes was assessed by measuring the transfer of the radionuclide from each complex to serum proteins using ITLC eluted with CH3CN/H2O (3:2 v/v) or 20 mM EDTA in 0.15 M NH4OAc. […]

[4] = In vitro serum stability of 177Lu-radiolabeled 3p-C complexes; format: in vitro ADME; conditions: human serum, 37° C., in 72 h
Experimental: as §1, §2

[5] = EDTA challenge of 64Cu-radiolabeled complexes of chelators A-F; format: physicochemical; conditions: EDTA 100-fold molar excess; for Bound complex (%): 64Cu complex, 37° C.; for 64Cu activity dissociated from the complex / transferred to EDTA: 24 h time point
Experimental: ^64Cu-radiolabeled complexes were further evaluated for complex stability based on EDTA challenge. ^64Cu-radiolabeled complexes were freshly prepared and treated with a solution of EDTA at a 100-fold molar excess, and the resulting solution (pH 5.5) was incubated at 37° C. for 24 h. […] Among the complexes tested, ^64Cu-radiolabeled pentadentate chelator B was least tolerant of EDTA treated, and most of ^64Cu was dissociated from the complex (˜80%) at 24 h time point. ^64Cu-radiolabeled chelator C containing the carbonyl donor group was found dissociated rapidly in the presence of the excess EDTA, and 50% of the activity was transchelated by EDTA at 1 h time point. ^64Cu-radiolabeled chelators D and F with the respective hydroxyl and thiophenyl donor group were slower in dissociation than ^64Cu-radiolabeled chelators B and C and released >45% of ^64Cu at 24 h time point. Dissociation of the activity from the ^64Cu-radiolabeled chelators was also measured using radio-HPLC at 25 h time point (FIG. 5). The peak related to ^64Cu-EDTA (tR=2.5 min) was clearly separated from bound ^64Cu complex of the chelators. ^64Cu-radiolabeled complex of polar chelators E and F have the respective retention time at […] and 6.2 min, while other ^64Cu-radiolabeled complexes have similar retention time (tR=7˜8 min). The ^64Cu-radiolabeled chelators C and D gave a small peak (tR=˜3 min and tR=˜7 min, respectively).
^64Cu-radiolabeled complexes were prepared by reaction of each chelator (20 μg) with ^64Cu (60 μCi) in 0.25M NH4OAc buffer (pH 5.5) for 2 h at room temperature. The radiolabeled complexes were prepared as described above and directly used for the experiments. ^64Cu-radiolabeled complex was mixed with EDTA at a 100-fold molar excess. The resulting mixture was incubated for 24 h at 37° C. The stability of ^64Cu-radiolabeled complexes in the solution was evaluated using ITLC (20 mM EDTA in 0.15M NH4OAc). A solution of the radiolabeled complex in serum (3˜20 μL) was withdrawn at the designated time points and evaluated by ITLC as described above. Stability of the complexes was also evaluated at 25 h time point by HPLC (solvent A: 0.1% TFA in H2O, solvent B: 0.1% TFA in CH3CN, 0-100% B/15 min, flow rate: 1 mL/min). ^64Cu-EDTA complex was eluted early (tR=˜2.5 min), while ^64Cu-radiolabeled complexes of chelators A-D, E, and F have the respective retention time (tR=7˜8 min, tR=4.6 min, and tR=6.2 min).

[6] = Stability and radioactivity level of 64Cu complexes in mice; format: in vivo; conditions: 64Cu complex
[7] = In vitro serum stability of 64Cu-radiolabeled complexes of chelators A-F; format: in vitro ADME; conditions: human serum, over 2 days; listed as 64Cu-chelator E
Experimental: In vitro serum stability of the radiolabeled complexes was performed to determine if the chelators radiolabeled with ^64Cu remained stable without loss of the radioactivity in human serum. This was assessed by measuring the transfer of ^64Cu from the complex to human serum proteins using ITLC (20 mM EDTA in 0.15M NH4OAc, Table 2). ^64Cu-radiolabeled chelators were readily prepared from the reactions of the chelators with ^64Cu at room temperature. Essentially no unbound ^64Cu was detected in the reaction mixture at 2 h time point after the reaction at room temperature as determined by ITLC. The ^64Cu-radiolabeled chelators were directly used for serum stability studies (pH 7, 37° C.) without further purification. All ^64Cu-radiolabeled complexes remained intact in human serum for 2 days as evidenced by ITLC analysis (Supporting Information). […] A tiny amount of ^64Cu (<0.3%) was detected from other ^64Cu-complexes of chelators B, D-F.
The freshly prepared radiolabeled complexes were directly used for serum stability studies without further purification. ^64Cu-radiolabeled complex (85 μCi, 10 μL) was added to human serum (90 μL) in a microcentrifuge tube. The stability of ^64Cu-radiolabeled complexes in human serum was evaluated at 37° C. for 2 days. A solution of the radiolabeled complex in serum was withdrawn at the designated time points and evaluated by ITLC as described above.

Row | SMILES | Bound radiolabeled complex (%) ([1]; 0 hour) | Bound complex (%) ([5]; pH 5.5, ITLC, 0 h) | Bound complex (%) ([5]; pH 5.5, ITLC, 1 h) | Bound complex (%) ([5]; pH 5.5, ITLC, 4 h) | Bound complex (%) ([5]; pH 5.5, ITLC, 19 h) | Bound complex (%) ([5]; pH 5.5, ITLC, 24 h) | Bound complex (%) ([5]; pH 5.5, radio-HPLC, 25 h) | 64Cu activity dissociated from the complex / transferred to EDTA [5] | stability in mice and radioactivity level in blood and normal organs [6] | also measured
1 | O=C(O)CN1CCN(CC(=O)O)CCN(CC(CCCc2ccc([N+](=O)[O-])cc2)N(CC(=O)O)CC(=O)O)CCN(CC(=O)O)CC1 (stereo not drawn) [Chelator 3p-C-DEPA] |  |  |  |  |  |  |  |  |  | 90Y transchelated/lost to serum [3]: 25%; 177Lu transchelated to serum [4]: 40%
2 | O=C(O)CN1CCN(CC(=O)O)CCN(C(CCc2ccc([N+](=O)[O-])cc2)C(=O)O)CC1 (stereo not drawn) [Chelator A, 2-[4,7-bis(carboxymethyl)-1,4,7-triazonan-1-yl]-4-(4-nitrophenyl)butanoic acid, reference compound] |  | 99.9 ± 0.1% | 98.6 ± 0.6% | 96.8 ± 0.0% | 95.3 ± 0.5% | 94.9 ± 0.0% | 90.3 ± 0.3% | ~5% | stable in mice and displayed low radioactivity level in the blood and the normal organs | 
3 | O=C(O)CN1CCN(CC(=O)O)CCN(Cc2ccccn2)CC1 [Chelator E, 2-[4-(carboxymethyl)-7-(pyridin-2-ylmethyl)-1,4,7-triazonan-1-yl]acetic acid] |  | 99.7 ± 0.1% | 98.2 ± 0.3% | 92.6 ± 0.3% | 93.6 ± 0.1% | 94.3 ± 0.6% | 93.1 ± 0.1% | ~5% | stable in mice and displayed low radioactivity level in the blood and the normal organs | 64Cu dissociated/released from the complex in serum [7]: No measurable radioactivity was released

More lines, main results first:

Row | Bound radiolabeled complex (%) ([1]; 0 hour) | Bound complex (%) ([5]; pH 5.5, ITLC, 0 h) | Bound complex (%) ([5]; pH 5.5, ITLC, 1 h) | Bound complex (%) ([5]; pH 5.5, ITLC, 4 h) | Bound complex (%) ([5]; pH 5.5, ITLC, 19 h) | Bound complex (%) ([5]; pH 5.5, ITLC, 24 h) | Bound complex (%) ([5]; pH 5.5, radio-HPLC, 25 h) | 64Cu activity dissociated from the complex / transferred to EDTA [5] | SMILES | stability in mice and radioactivity level in blood and normal organs [6] | also measured
4 | 100 ± 0.07% |  |  |  |  |  |  |  | O=C(O)CN1CCN(CCN(CC(=O)O)CC(=O)O)CCN(CC(CCCc2ccc([N+](=O)[O-])cc2)N(CC(=O)O)CC(=O)O)CC1 (stereo not drawn) [Chelator 1] |  | Bound radiolabeled complex (%) ([1]; 312 hour): 100 ± 0.00%; Bound radiolabeled complex (%) ([2]; 0 hour): 100 ± 0.00%; Bound radiolabeled complex (%) ([2]; 262 hour): 98.9 ± 1.34%; Bound radiolabeled complex (%) ([2]; 286 hour): 97.3 ± 2.92%; Bound radiolabeled complex (%) ([2]; 313 hour): 97.2 ± 2.46%; Bound radiolabeled complex (%) ([2]; 336 hour): 98.4 ± 0.67%
5 | 99.9 ± 0.0% |  |  |  |  |  |  |  | O=C(O)CN(CCN1CCN(CCN(CC(=O)O)CC(=O)O)CCN(CC(CCCc2ccc([N+](=O)[O-])cc2)N(CC(=O)O)CC(=O)O)CC1)CC(=O)O (stereo not drawn) [Chelator 2, 2-{[2-(4-{2-[bis(carboxymethyl)amino]-5-(4-nitrophenyl)pentyl}-7-{2-[bis(carboxy-methyl)amino]ethyl}-1,4,7-triazonan-1-yl)ethyl](carboxymethyl)amino}acetic acid] |  | 
